{"source": "patent US8435992B2", "about": "“Multiple myeloma treatments” (Pharma Mar S.A., priority 2008, dated 2013)", "key": {"MM1S": {"tested_on": "MM1S", "test": "MTT viability assay, MM cell line panel", "type": "cell-based, human", "protocol": "(§1) Antitumor activity of PM00104 in MM was evaluated by using a cell line panel comprising the following 9 MM cell lines: MM1S, MM1R, MM144, RPMI8226, RPMI-LR5, U266, U266-LR7, OPM-1, and OPM-2. These cell lines were grown in RPMI 1640 medium with L-glutamine supplemented with antibiotics (penicillin at 100 U/mL, streptomycin at 100 μg/mL) and 10% fetal bovine serum (FBS) at 37° C. in a humidified atmosphere in the presence of 5% CO2-95% air.\n(§2) Cell lines were treated with increasing concentrations of the PM00104 (0.1-50 nM) for 24, 48 and 72 hours, and viability was analyzed by using 3-(4,5-dimethylthiazol-2-yl)-2,5-diphenyltetrazolium bromide (MTT) colorimetric assay. Briefly, MM cell lines were seeded at a density of 50,000 cells/200 […] medium per well in 48-well plates, and treated with a determined drug dose and time. Two hours before the end of the treatment, a MTT solution (5 mg/mL) in PBS) was added and the tetrazolium salt was reduced by metabolically active cells to coloured formazan crystals. After solubilization of these crystals by overnight incubation with 10% SDS-HCl solution, absorbance was measured at 570 nm with correction at 630 nm. Results are presented as the mean±SD of quadruplicates of an experiment that was repeated at least twice."}, "[1]": {"tested_on": "BMSCs derived from a MM patient", "test": "MTT cytotoxicity on BMSCs", "type": "cell-based, human", "settings": "48 hours", "protocol": "(§3) FIG. 3. PM00104 overcomes the protective effects of IL-6, IGF-I, and adherence to patient BMSCs. MM1S cells were treated for 48 hours with indicated concentrations of PM00104 in the presence or absence of IL-6 (FIG. 3A), IGF-I (FIG. 3B), or BMSCs derived from a MM patient (FIG. 3C). DNA synthesis was determined by measuring BrdU incorporation during the last 8 hours of 48-hour cultures. Additionally, BMSCs were cultured with different doses of PM00104 for 48 hours and the cytotoxicity was analyzed by MTT assay (FIG. 3D). Data is presented as the mean±SD of quadruplicates."}, "OPM-1 plasmocytomas": {"tested_on": "OPM-1 plasmocytomas", "test": "Human plasmocytoma xenograft in CB17-SCID mice (OPM-1)", "type": "in vivo", "settings": "for tumor volume (mean±SD): after 14 days of treatment", "protocol": "(§4) The in vivo efficacy of PM00104 was studied in a model of human plasmocytoma xenografted in CB17-SCID mice. These experiments were performed using the very sensitive cell line MM1S and the less sensitive one OPM-1. Two cohorts of thirty mice were subcutaneously injected with each cell line and mice were randomized into three groups receiving vehicle alone, 0.8 mg/kg of PM00104, or 1 mg/Kg PM00104 intravenously (iv) once weekly for three doses.\n(§5) CB17-SCID mice (The Jackson Laboratory, Bar Harbor, Me., USA) were subcutaneously inoculated into the right flank with 3×10^6 MM1S or OPM1 cells in 100 μL of RPMI-1640 medium and 100 μL of Matrigel (Becton Dickinson). When tumours became palpable, mice received PM00104 or vehicle alone. Treatment with PM00104 was given iv, at doses of 0.8 mg/kg and 1 mg/kg once weekly for three doses. The control group received the vehicle alone (sterile water for injection plus saline).\n(§6) Caliper measurements of the tumour diameters were performed every day, and the tumour volume was estimated as the volume of an ellipse using the following formula: V=4/3π×(a/2)×(b/2)^2, where “a” and “b” correspond to the longest and shortest diameter, respectively. Animals were euthanized when their tumours reached 2 cm. Differences in tumour volumes between treated and control groups were evaluated using 1-way analysis of variance and Bonferroni post hoc tests. Survival was estimated from the day of initiation of treatment, and statistical differences were assessed by Kaplan-Meier curves with the Log Rank test. Statistical analyses were performed with the SPSS-15.0 software (SPSS Inc. Chicago, Ill., USA) and statistical significance was defined as p<0.05."}, "MM1S plasmocytomas": {"tested_on": "MM1S plasmocytomas", "test": "Human plasmocytoma xenograft in CB17-SCID mice (MM1S)", "type": "in vivo", "settings": "for tumor volume (mean±SD): after 15 days of treatment", "protocol": "as §4, §5, §6"}, "[2]": {"tested_on": "myelomatous plasma cells from bone marrow samples of MM patients", "test": "Ex vivo apoptosis (Annexin V) in bone marrow cells from MM patients", "type": "cell-based, human", "settings": "1-50 nM, 18 hours", "protocol": "FIG. 2. Freshly isolated bone marrow cells obtained from six MM patients were treated ex vivo with PM00104 (1-50 nM) for 18 hours. After the incubation period, cells were stained with the combination of Annexin V-FITC, and three monoclonal antibodies against plasma cell surface antigens (CD38, CD56 and CD45) which allow the analysis of the induction of apoptosis in the myelomatous population. Results are given as the percentage of Annexin V positive cells related to the percentage of viable cells in the untreated sample.\nAdditionally, the effect of PM00104 was further investigated ex vivo in cells isolated from bone marrow (BM) samples obtained from six patients with MM. Samples were lysed with ammonium chloride in order to remove red blood cells, and white cells were maintained in RPMI-1640 containing antibiotics (penicillin 100 U/ml, streptomycin 100 μg/ml) and 20% FBS. […] A total of 50,000 cells were acquired on a FACScalibur flow cytometer (BD Biosciences) and analyzed with the “Paint-a-Gate” program. Apoptosis was analyzed based on the Annexin-V positivity in the different populations: tumour PCs as well as in normal residual lymphocytes and granulo-monocytes. The percentage of Annexin V positive cells after treatment with PM00104 was calculated over the Annexin V negative cells (viable cells) in the control samples (without treatment)."}, "MM1S cells [3]": {"tested_on": "MM1S cells", "test": "BrdU uptake of MM1S cells with IL-6, IGF-I or co-cultured BMSCs", "type": "cell-based, human", "settings": "48 hours", "protocol": "as §3\nThe presence of the BM microenvironment confers protection to MM through their adhesion or through the production of several cytokines such as IL-6 or IGF-I. In order to test whether PM00104 was able to inhibit this protective effect of the BM microenvironment, MM1S cells were incubated with IL-6 (1 nM) or IGF-I (10 nM), or co-cultured with BM stromal cells (BMSCs) for 48 hours, and then treated with increasing concentrations of PM00104. BMSCs were plated in 96-well culture dishes (50,000 cells/well) and allowed to reach confluence during 48 hours. Then, 30,000 myeloma cells were plated in RPMI 1640 containing 10% serum. Proliferation of MM cells was then assessed by Bromodeoxyuridine (BrdU) uptake (Maiso P et al. Br. J. Haematol. 2008, 141, 470-482). BrdU was added for the last 8 hours, and BrdU uptake was measured using a commercial kit (Roche Biochemicals), following the manufacturer's instructions."}, "MM1S cells [4]": {"tested_on": "MM1S cells", "test": "Combination with antimyeloma agents, MTT assay, Chou Talalay combination index", "type": "cell-based, human", "settings": "72 hours; for combination index (CI): Chou and Talalay method", "protocol": "FIG. 5. PM00104 potentiates the antimyeloma action of conventional and novel antimyeloma agents. MM1S cells were treated with suboptimal concentrations of PM00104 (Zalypsis, Z) and other antimyeloma agents such as Dexamethasone (Dex), melphalan (Mel), doxorubicin (Dox), bortezomib (Bort) and lenalidomide (Len) in double (FIG. 5A) and triple combinations (FIG. 5B). Cell viability was analyzed by MTT assay.\nMM1S cells were treated for 72 hours, as described in example 1, with combinations of suboptimal doses of PM00104 and other antimyeloma agents such as dexamethasone, melphalan, doxorubicin, bortezomib and lenalidomide, in double and triple combinations. Cell viability was analyzed by MTT assay as described in example 1. The potency of the combination was quantified with the Calcusyn software (Biosoft, Ferguson, Mo.), which is based in the Chou Talalay method, that calculates a combination index (CI) with the following interpretation: CI>1: antagonistic effect, CI=1: additivity and CI<1 synergistic effect."}, "[5]": {"test": "Systemic toxicity and body weight in xenografted mice", "type": "in vivo", "protocol": "as §4, §5"}, "MM144": {"tested_on": "MM144", "test": "MTT viability assay, MM cell line panel", "type": "cell-based", "protocol": "as §1, §2"}, "U266": {"tested_on": "U266", "test": "MTT viability assay, MM cell line panel", "type": "cell-based", "settings": "Homo sapiens, U-266, 48 hours", "protocol": "as §1, §2"}, "OPM-1": {"tested_on": "OPM-1", "test": "MTT viability assay, MM cell line panel", "type": "cell-based", "settings": "Homo sapiens; OPM-1, MTT, 48 hours", "protocol": "as §1, §2"}, "RPMI-LR5": {"tested_on": "RPMI-LR5", "test": "MTT viability assay, MM cell line panel", "type": "cell-based", "settings": "RPMI-LR5 (melphalan resistant), 48 hours", "protocol": "as §1, §2"}, "OPM-2": {"tested_on": "OPM-2", "test": "MTT viability assay, MM cell line panel", "type": "cell-based", "settings": "Homo sapiens; OPM-2, MTT, 48 hours", "protocol": "as §1, §2"}, "RPMI8226": {"tested_on": "RPMI8226", "test": "MTT viability assay, MM cell line panel", "type": "cell-based", "settings": "Homo sapiens, RPMI-8226, 48 hours", "protocol": "as §1, §2"}, "U266-LR7": {"tested_on": "U266-LR7", "test": "MTT viability assay, MM cell line panel", "type": "cell-based", "settings": "U266-LR7 (melphalan resistant), 48 hours", "protocol": "as §1, §2"}, "MM1R": {"tested_on": "MM1R", "test": "MTT viability assay, MM cell line panel", "type": "cell-based", "protocol": "as §1, §2"}, "[6]": {"settings": "OPM-1, 0.8 mg/kg iv once weekly for three doses"}, "[7]": {"settings": "OPM-1, 1 mg/kg iv once weekly for three doses"}, "[8]": {"settings": "0.8 mg/kg iv once weekly for three doses"}, "[9]": {"settings": "1 mg/kg iv once weekly for three doses"}}}
{"smiles": "COc1c(C)cc2c(c1O)[C@@H]1[C@@H]3Cc4c(OC(C)=O)c(C)c5c(c4[C@H](CNC(=O)/C=C/c4cccc(C(F)(F)F)c4)N3[C@@H](O)[C@H](C2)N1C)OCO5", "note": "[PM00104]", "values": [{"measurement": "IC50 at 48 hours", "setting": "MM1S", "value": "picomolar concentrations"}, {"measurement": "cytotoxic effect on BMSCs", "setting": "[1]", "value": "very resistant"}, {"measurement": "median±SE survival", "setting": "OPM-1 plasmocytomas; [6]", "value": "21 ± 0.8", "unit": "days"}, {"measurement": "tumor volume (mean±SD)", "setting": "OPM-1 plasmocytomas; [6]", "value": "1879±731", "unit": "mm^3"}, {"measurement": "median±SE survival", "setting": "OPM-1 plasmocytomas; [7]", "value": "23 ± 1.1", "unit": "days"}, {"measurement": "tumor volume (mean±SD)", "setting": "OPM-1 plasmocytomas; [7]", "value": "1042±596", "unit": "mm^3"}, {"measurement": "median±SE survival", "setting": "MM1S plasmocytomas; [8]", "value": "52 ± 4.8", "unit": "days"}, {"measurement": "tumor volume (mean±SD)", "setting": "MM1S plasmocytomas; [8]", "value": "420±242", "unit": "mm^3"}, {"measurement": "median±SE survival", "setting": "MM1S plasmocytomas; [9]", "value": "59 ± 5.5", "unit": "days"}, {"measurement": "tumor volume (mean±SD)", "setting": "MM1S plasmocytomas; [9]", "value": "176±78", "unit": "mm^3"}, {"measurement": "sensitivity of patient samples (Annexin V positive cells)", "setting": "[2]; four out of six samples (patients 1, 6, 3 and 5)", "value": "very sensitive to low concentrations"}, {"measurement": "sensitivity of patient samples (Annexin V positive cells)", "setting": "[2]; patient 4, secondary plasma cell leukemia", "value": "intermediate sensitivity"}, {"measurement": "effect on protective effect due to adhesion of plasma cells to BMSCs (BrdU uptake)", "setting": "MM1S cells [3]; MM1S co-cultured with BMSCs", "value": "largely inhibited"}, {"measurement": "effect on proliferative advantage conferred by IGF-I (BrdU uptake)", "setting": "MM1S cells [3]; MM1S, IGF-I 10 nM", "value": "completely abrogated"}, {"measurement": "effect on proliferative advantage conferred by IL-6 (BrdU uptake)", "setting": "MM1S cells [3]; MM1S, IL-6 1 nM", "value": "completely abrogated"}, {"measurement": "effect of combination on cell viability", "setting": "MM1S cells [4]; with bortezomib", "value": "promising additive/synergistic results"}, {"measurement": "efficacy of triple combination vs respective double combinations", "setting": "MM1S cells [4]; with dexamethasone + doxorubicin", "value": "significantly improved the efficacy"}, {"measurement": "efficacy of triple combination vs respective double combinations", "setting": "MM1S cells [4]; with dexamethasone + lenalidomide", "value": "significantly improved the efficacy"}, {"measurement": "efficacy of triple combination vs respective double combinations", "setting": "MM1S cells [4]; with dexamethasone + melphalan", "value": "significantly improved the efficacy"}, {"measurement": "combination index (CI)", "setting": "MM1S cells [4]; with dexamethasone", "value": 0.78}, {"measurement": "combination index (CI)", "setting": "MM1S cells [4]; with doxorubicin", "value": 0.64}, {"measurement": "combination index (CI)", "setting": "MM1S cells [4]; with lenalidomide", "value": 0.55}, {"measurement": "combination index (CI)", "setting": "MM1S cells [4]; with melphalan", "value": 0.48}, {"measurement": "systemic toxicity", "setting": "[5]; 0.8 and 1 mg/kg iv once weekly for three doses", "value": "no significant systemic toxicity"}, {"measurement": "weight loss (of body weight as compared to the controls)", "setting": "[5]; highest of PM00104 doses", "value": "around 10%"}, {"measurement": "IC50 at 48 hours", "setting": "MM144", "value": "picomolar concentrations"}, {"measurement": "IC50", "setting": "U266", "value": "1 to 2", "unit": "nM"}, {"measurement": "IC50", "setting": "OPM-1", "value": "1 to 2", "unit": "nM"}, {"measurement": "IC50", "setting": "RPMI-LR5", "value": "1 to 2", "unit": "nM"}, {"measurement": "IC50", "setting": "OPM-2", "value": "1 to 2", "unit": "nM"}, {"measurement": "IC50", "setting": "RPMI8226", "value": "1 to 2", "unit": "nM"}, {"measurement": "IC50", "setting": "U266-LR7", "value": "1 to 2", "unit": "nM"}, {"measurement": "IC50 at 48 hours", "setting": "MM1R", "value": "picomolar concentrations"}]}
